The text below walks through data of US20180265867A1, “NUCLEIC ACID MOLECULES WITH ENHANCED ACTIVITY” (priority 2015, published 2018).

d = 2'-deoxy (DNA); r = 2'-OH (RNA)

In this data set the test system is CTNNB1 (β-catenin). Description: CTNNB1 knockdown time course in MG63 cells by qRT-PCR. Conditions: MG63, 50 nM, 24, 48 and 72 h; β-catenin cpRNA without transfection reagent vs canonical siRNA with transfection reagent. The data set is classed as cell-based, human. Here is the method: At 70% confluency, a day prior to transfection, the cells were seeded at a density of 35 000 cells in a 24-well cell culture plate to achieve 60-80% confluence at the day of transfection. Cell penetrating siRNAs (cpRNAs) of different lengths were transfected at 50 nM concentrations with Magnet Assisted Transfection (MATra-si) reagent for siRNAs (IBA GmbH, Göttingen, Germany) according to the manufacturers' protocols. Briefly, the siRNA was mixed with MATra-si reagent composed of supermagnetic ironoxide nanoparticles and incubated for 20 min. A complex was formed which was added to the cells to be transfected. A strong magnetic force was applied beneath the cells for 15 min. This forced the complex to be drawn into the cells by the magnetic field, and as a result the siRNA was delivered directly into the cytosol. […]
cDNA synthesis was performed in triplicate using total RNA reverse transcribed using High Capacity cDNA reverse transcription kit (Applied Biosystems, USA), with non-template control added to ensure a lack of signal in assay background. […] Data from samples with a Ct value equal to or below 35 were further analyzed. Samples were normalized relative to endogenous control and differences in cycle number thresholds were calculated using comparative quantitation 2^−ΔΔcT method (also called the ΔΔCT method), commonly used for analyzing siRNA induced gene knockdown efficiency. […]

Regarding “dT5: GAPDH siRNA, sense SEQ ID NO: 3 with dT5 3′-overhang, antisense SEQ ID NO: 2 with dT2 (sense CCGAGCCACAUCGCUCAGATTTTT; antisense UCUGAGCGAUGUGGCUCGGTT; sense: sugars from the 5' end r19 d5, backbone not given here; antisense: sugars from the 5' end r19 d2, backbone not given here)”, the “CTNNB1 mRNA knockdown efficiency over time” value is “higher gene knockdown efficiency for over 72 hrs”.
